In ChEMBL document CHEMBL4507302, “Data for DCP probe TP-020” (2021):

How the values were obtained:
[1] = target: Mitogen-activated protein kinase kinase kinase 12 (Homo sapiens) (UniProt Q12852); conditions: Compound concentration 1000.0 nM
[2] = target: Serine/threonine-protein kinase MAK (Homo sapiens) (UniProt P20794); conditions: Compound concentration 1000.0 nM
[3] = system: Mast/stem cell growth factor receptor Kit (Homo sapiens), P10721 [V559D,T670I]; conditions: Compound concentration 1000.0 nM
[4] = target: SRSF protein kinase 1 (Homo sapiens) (UniProt Q96SB4); conditions: Compound concentration 1000.0 nM
[5] = system: Tyrosine-protein kinase ABL1 (Homo sapiens), P00519 [H396P]; conditions: Compound concentration 1000.0 nM
[6] = target: Serine/threonine-protein kinase 17B (Homo sapiens) (UniProt O94768); conditions: Compound concentration 1000.0 nM
[7] = system: ALK tyrosine kinase receptor (Homo sapiens), Q9UM73 [L1196M]; conditions: Compound concentration 1000.0 nM
[8] = target: Discoidin domain-containing receptor 2 (Homo sapiens) (UniProt Q16832); conditions: Compound concentration 1000.0 nM
[9] = system: Epidermal growth factor receptor (Homo sapiens), P00533 [UNDEFINED MUTATION]; conditions: Compound concentration 1000.0 nM
[10] = system: Hepatocyte growth factor receptor (Homo sapiens), P08581 [Y1235D]; conditions: Compound concentration 1000.0 nM
[11] = target: Calcium/calmodulin-dependent protein kinase type 1D (Homo sapiens) (UniProt Q8IU85); conditions: Compound concentration 1000.0 nM
[12] = target: Serine/threonine-protein kinase ULK1 (Homo sapiens) (UniProt O75385); conditions: Compound concentration 1000.0 nM
[13] = target: Mast/stem cell growth factor receptor Kit (Homo sapiens) (UniProt P10721); conditions: Compound concentration 1000.0 nM
[14] = target: Myosin light chain kinase family member 4 (Homo sapiens) (UniProt Q86YV6); conditions: Compound concentration 1000.0 nM
[15] = target: Serine/threonine-protein kinase/endoribonuclease IRE1 (Homo sapiens) (UniProt O75460); conditions: Compound concentration 1000.0 nM
[16] = target: Tyrosine-protein kinase Yes (Homo sapiens) (UniProt P07947); conditions: Compound concentration 1000.0 nM
[17] = target: Ephrin type-B receptor 3 (Homo sapiens) (UniProt P54753); conditions: Compound concentration 1000.0 nM
[18] = target: Serine/threonine-protein kinase Nek1 (Homo sapiens) (UniProt Q96PY6); conditions: Compound concentration 1000.0 nM
[19] = target: Epidermal growth factor receptor (Homo sapiens) (UniProt P00533); conditions: Compound concentration 1000.0 nM
[20] = target: Non-receptor tyrosine-protein kinase TYK2 (Homo sapiens) (UniProt P29597); conditions: Compound concentration 1000.0 nM
[21] = target: Dual specificity mitogen-activated protein kinase kinase 1 (Homo sapiens) (UniProt Q02750); conditions: Compound concentration 1000.0 nM
[22] = target: Serine/threonine-protein kinase Nek3 (Homo sapiens) (UniProt P51956); conditions: Compound concentration 1000.0 nM
[23] = system: Epidermal growth factor receptor (Homo sapiens), P00533 [L858R,T790M]; conditions: Compound concentration 1000.0 nM
[24] = target: Serine/threonine-protein kinase Nek9 (Homo sapiens) (UniProt Q8TD19); conditions: Compound concentration 1000.0 nM
[25] = target: Mitogen-activated protein kinase 9 (Homo sapiens) (UniProt P45984); conditions: Compound concentration 1000.0 nM
[26] = target: Serine/threonine-protein kinase WNK2 (Homo sapiens) (UniProt Q9Y3S1); conditions: Compound concentration 1000.0 nM
[27] = target: Bone morphogenetic protein receptor type-1B (Homo sapiens) (UniProt O00238); conditions: Compound concentration 1000.0 nM
[28] = target: Dual specificity protein kinase CLK3 (Homo sapiens) (UniProt P49761); conditions: Compound concentration 1000.0 nM
[29] = target: Dual specificity mitogen-activated protein kinase kinase 7 (Homo sapiens) (UniProt O14733); conditions: Compound concentration 1000.0 nM
[30] = target: Cyclin-dependent kinase 16 (Homo sapiens) (UniProt Q00536); conditions: Compound concentration 1000.0 nM
[31] = target: Phosphatidylinositol 3-kinase C2 domain-containing subunit gamma (Homo sapiens) (UniProt O75747); conditions: Compound concentration 1000.0 nM
[32] = target: LIM domain kinase 1 (Homo sapiens) (UniProt P53667); conditions: Compound concentration 1000.0 nM
[33] = target: Mitogen-activated protein kinase kinase kinase 5 (Homo sapiens) (UniProt Q99683); conditions: Compound concentration 1000.0 nM
[34] = target: Inhibitor of nuclear factor kappa-B kinase subunit alpha (Homo sapiens) (UniProt O15111); conditions: Compound concentration 1000.0 nM
[35] = target: Serine/threonine-protein kinase RIO3 (Homo sapiens) (UniProt O14730); conditions: Compound concentration 1000.0 nM
[36] = target: Calcium/calmodulin-dependent protein kinase type II subunit beta (Homo sapiens) (UniProt Q13554); conditions: Compound concentration 1000.0 nM
[37] = target: Ribosomal protein S6 kinase alpha-4 (Homo sapiens) (UniProt O75676); conditions: Compound concentration 1000.0 nM
[38] = target: Atypical kinase COQ8A, mitochondrial (Homo sapiens) (UniProt Q8NI60); conditions: Compound concentration 1000.0 nM
[39] = target: Phosphatidylinositol 4,5-bisphosphate 3-kinase catalytic subunit beta isoform (Homo sapiens) (UniProt P42338); conditions: Compound concentration 1000.0 nM
[40] = target: 5-hydroxytryptamine receptor 1D (Homo sapiens, UniProt P28221); conditions: Compound concentration 10.0 uM
[41] = target: Serine/threonine-protein kinase Nek4 (Homo sapiens) (UniProt P51957); conditions: Compound concentration 1000.0 nM
[42] = target: D(2) dopamine receptor (Homo sapiens) (UniProt P14416); conditions: Compound concentration 10.0 uM
[43] = target: Ribosomal protein S6 kinase alpha-1 (Homo sapiens) (UniProt Q15418); conditions: Compound concentration 1000.0 nM
[44] = target: Alpha-1D adrenergic receptor (Homo sapiens) (UniProt P25100); conditions: Compound concentration 10.0 uM
[45] = target: Rho-associated protein kinase 1 (Homo sapiens) (UniProt Q13464); conditions: Compound concentration 1000.0 nM
Sequence of Rho-associated protein kinase 1 (Homo sapiens) (Q13464 2-1354 limits assumed): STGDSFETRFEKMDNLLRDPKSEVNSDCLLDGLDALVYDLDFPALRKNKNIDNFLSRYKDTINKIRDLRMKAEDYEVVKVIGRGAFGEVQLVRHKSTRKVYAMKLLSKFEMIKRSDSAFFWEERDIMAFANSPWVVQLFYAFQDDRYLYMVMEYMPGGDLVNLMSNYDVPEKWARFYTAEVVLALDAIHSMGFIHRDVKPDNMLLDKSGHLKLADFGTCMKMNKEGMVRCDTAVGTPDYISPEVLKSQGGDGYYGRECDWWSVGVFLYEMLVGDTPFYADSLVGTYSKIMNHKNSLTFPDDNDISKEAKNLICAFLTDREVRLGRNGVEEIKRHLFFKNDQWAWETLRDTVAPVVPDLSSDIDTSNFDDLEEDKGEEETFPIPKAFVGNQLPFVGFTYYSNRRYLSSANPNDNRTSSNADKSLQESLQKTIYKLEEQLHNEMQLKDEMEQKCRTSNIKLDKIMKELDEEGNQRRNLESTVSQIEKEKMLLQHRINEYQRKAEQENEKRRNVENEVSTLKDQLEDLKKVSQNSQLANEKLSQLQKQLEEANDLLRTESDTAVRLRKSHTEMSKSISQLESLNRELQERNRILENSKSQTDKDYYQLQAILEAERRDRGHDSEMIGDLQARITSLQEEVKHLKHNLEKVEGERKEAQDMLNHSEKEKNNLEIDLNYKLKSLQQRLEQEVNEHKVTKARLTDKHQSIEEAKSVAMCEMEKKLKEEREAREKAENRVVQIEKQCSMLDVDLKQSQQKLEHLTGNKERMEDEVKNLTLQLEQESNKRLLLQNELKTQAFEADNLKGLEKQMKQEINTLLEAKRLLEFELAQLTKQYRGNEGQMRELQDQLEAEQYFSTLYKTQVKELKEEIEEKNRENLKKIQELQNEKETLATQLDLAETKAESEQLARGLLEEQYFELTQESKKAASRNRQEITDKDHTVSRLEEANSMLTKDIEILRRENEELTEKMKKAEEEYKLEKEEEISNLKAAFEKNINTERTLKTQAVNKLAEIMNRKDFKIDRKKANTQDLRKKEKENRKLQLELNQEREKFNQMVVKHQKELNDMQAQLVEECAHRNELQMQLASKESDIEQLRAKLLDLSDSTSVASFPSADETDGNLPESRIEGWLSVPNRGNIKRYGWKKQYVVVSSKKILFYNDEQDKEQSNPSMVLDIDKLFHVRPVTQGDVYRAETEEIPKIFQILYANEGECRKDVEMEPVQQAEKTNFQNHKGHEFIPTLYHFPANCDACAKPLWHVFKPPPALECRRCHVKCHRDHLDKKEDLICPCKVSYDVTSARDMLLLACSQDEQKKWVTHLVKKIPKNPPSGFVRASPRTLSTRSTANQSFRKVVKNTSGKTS

Sequence of Mast/stem cell growth factor receptor Kit (Homo sapiens), P10721 [V559D,T670I] (P10721 whole entry V559D/T670I): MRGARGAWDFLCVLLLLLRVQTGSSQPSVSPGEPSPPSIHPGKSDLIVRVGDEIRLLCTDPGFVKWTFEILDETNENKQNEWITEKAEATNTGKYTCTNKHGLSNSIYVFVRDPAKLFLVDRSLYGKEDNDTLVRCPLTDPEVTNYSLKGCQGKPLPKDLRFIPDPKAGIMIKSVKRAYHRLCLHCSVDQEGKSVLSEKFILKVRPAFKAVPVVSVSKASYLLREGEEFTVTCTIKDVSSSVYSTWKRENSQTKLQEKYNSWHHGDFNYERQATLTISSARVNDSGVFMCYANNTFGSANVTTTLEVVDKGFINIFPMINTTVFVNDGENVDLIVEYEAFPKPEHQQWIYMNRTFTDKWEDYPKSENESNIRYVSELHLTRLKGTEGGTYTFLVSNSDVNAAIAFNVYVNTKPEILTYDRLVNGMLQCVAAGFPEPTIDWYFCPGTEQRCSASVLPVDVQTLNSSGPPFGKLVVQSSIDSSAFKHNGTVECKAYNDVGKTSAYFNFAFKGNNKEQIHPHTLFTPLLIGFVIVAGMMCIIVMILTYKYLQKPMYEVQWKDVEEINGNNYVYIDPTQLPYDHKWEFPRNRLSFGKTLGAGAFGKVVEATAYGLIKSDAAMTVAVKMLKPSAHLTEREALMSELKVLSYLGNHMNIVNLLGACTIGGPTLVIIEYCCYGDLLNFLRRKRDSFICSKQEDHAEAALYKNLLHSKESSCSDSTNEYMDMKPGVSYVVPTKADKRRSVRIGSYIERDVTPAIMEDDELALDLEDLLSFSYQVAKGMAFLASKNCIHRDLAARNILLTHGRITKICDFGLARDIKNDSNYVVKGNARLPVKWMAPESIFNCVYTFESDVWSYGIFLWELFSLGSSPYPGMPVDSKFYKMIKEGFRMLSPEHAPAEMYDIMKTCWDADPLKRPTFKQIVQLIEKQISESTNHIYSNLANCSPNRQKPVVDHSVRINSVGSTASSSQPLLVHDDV
Sequence of Ribosomal protein S6 kinase alpha-1 (Homo sapiens) (Q15418 whole entry): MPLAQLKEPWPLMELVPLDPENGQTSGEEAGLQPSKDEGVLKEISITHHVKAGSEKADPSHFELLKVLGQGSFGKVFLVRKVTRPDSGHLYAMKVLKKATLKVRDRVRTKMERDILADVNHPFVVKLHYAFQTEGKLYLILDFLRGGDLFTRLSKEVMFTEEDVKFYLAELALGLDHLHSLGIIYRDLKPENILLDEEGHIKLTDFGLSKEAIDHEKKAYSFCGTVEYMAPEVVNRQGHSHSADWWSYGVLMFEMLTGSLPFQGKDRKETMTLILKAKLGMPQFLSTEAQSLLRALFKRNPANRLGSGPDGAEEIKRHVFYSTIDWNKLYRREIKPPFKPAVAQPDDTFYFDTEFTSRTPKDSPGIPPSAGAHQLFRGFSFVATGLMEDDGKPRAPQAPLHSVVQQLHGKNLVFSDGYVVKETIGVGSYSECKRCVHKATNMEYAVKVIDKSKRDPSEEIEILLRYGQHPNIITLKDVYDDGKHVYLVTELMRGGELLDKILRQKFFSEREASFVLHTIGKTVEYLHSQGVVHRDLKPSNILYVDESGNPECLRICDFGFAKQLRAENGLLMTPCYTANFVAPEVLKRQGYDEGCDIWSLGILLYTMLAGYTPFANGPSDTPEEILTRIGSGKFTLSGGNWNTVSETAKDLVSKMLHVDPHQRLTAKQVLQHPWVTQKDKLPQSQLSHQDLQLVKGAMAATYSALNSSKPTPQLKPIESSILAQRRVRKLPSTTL
Sequence of D(2) dopamine receptor (Homo sapiens) (P14416 whole entry): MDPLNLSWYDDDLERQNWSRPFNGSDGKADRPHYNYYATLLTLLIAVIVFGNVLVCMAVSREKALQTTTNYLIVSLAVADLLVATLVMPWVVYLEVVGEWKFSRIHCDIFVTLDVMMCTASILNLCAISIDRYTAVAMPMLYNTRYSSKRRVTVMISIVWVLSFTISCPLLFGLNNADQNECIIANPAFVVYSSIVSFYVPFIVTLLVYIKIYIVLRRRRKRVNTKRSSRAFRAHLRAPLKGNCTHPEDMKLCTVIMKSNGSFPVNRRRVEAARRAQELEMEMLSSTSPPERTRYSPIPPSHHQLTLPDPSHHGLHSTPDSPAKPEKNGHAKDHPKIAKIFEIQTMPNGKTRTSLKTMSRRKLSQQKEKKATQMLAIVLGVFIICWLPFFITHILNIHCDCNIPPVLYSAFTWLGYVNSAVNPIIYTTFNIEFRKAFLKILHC
Sequence of Non-receptor tyrosine-protein kinase TYK2 (Homo sapiens) (P29597 whole entry): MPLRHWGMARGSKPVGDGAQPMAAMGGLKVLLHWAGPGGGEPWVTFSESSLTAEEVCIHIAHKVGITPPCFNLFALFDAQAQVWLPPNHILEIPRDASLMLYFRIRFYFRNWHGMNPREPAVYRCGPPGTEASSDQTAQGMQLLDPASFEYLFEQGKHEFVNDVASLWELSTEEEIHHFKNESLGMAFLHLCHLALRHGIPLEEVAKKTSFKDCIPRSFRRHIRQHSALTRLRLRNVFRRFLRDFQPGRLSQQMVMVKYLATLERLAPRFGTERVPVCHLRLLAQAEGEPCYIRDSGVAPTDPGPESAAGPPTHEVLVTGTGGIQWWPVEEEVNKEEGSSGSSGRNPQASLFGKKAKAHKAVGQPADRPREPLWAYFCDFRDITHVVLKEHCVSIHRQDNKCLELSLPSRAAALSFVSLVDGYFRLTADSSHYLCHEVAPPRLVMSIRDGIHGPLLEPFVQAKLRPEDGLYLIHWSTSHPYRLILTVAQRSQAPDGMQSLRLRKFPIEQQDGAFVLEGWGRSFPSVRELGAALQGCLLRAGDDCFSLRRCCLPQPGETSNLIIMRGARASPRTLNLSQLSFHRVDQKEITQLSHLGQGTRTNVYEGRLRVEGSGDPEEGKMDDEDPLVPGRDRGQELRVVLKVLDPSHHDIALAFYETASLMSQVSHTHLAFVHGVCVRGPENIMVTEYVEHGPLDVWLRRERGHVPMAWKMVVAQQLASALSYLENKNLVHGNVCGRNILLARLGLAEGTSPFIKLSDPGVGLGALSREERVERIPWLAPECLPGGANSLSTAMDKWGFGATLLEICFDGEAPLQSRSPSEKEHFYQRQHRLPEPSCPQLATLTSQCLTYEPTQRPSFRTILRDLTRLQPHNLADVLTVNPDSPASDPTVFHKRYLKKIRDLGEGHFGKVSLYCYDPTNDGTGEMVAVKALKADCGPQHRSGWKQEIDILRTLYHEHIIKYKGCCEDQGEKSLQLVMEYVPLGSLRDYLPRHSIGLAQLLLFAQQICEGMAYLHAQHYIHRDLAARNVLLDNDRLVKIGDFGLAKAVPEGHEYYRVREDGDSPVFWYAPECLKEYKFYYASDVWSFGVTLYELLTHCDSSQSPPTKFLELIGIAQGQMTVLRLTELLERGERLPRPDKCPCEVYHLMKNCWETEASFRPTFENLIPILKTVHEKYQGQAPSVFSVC
Sequence of Mast/stem cell growth factor receptor Kit (Homo sapiens) (P10721 whole entry): as the sequence (P10721 whole entry V559D/T670I) above, with D559V, I670T counted along it

Nc1cnc(N2CCc3cc(S(=O)(=O)Nc4c(F)cc(Cl)cc4F)cc(N4CCCC4=O)c32)nc1
active: residual activity [18] 46%
inactive: residual activity [1] 100% | residual activity [2] 96% | residual activity [3] 100% | residual activity [4] 81% | residual activity [5] 86% | residual activity [6] 100% | residual activity [7] 81% | residual activity [8] 100% | residual activity [9] 100% | residual activity [10] 69% | residual activity [11] 97% | residual activity [12] 95% | residual activity [13] 100% | residual activity [14] 100% | residual activity [15] 100% | residual activity [16] 100% | residual activity [17] 100% | residual activity [19] 82% | residual activity [20] 100% | residual activity [21] 100% | residual activity [22] 100% | residual activity [23] 77% | residual activity [24] 98% | residual activity [25] 84% | residual activity [26] 100% | residual activity [27] 100% | residual activity [28] 74% | residual activity [29] 100% | residual activity [30] 98% | residual activity [31] 78% | residual activity [32] 100% | residual activity [33] 83% | residual activity [34] 100% | residual activity [35] 100% | residual activity [36] 100% | residual activity [37] 100% | residual activity [38] 100% | residual activity [39] 87% | inhibition [40] 9.24% | residual activity [41] 97% | inhibition [42] -0.42% | residual activity [43] 93% | inhibition [44] -2.31% | residual activity [45] 96%

Cn1nc(C(F)(F)F)cc1-c1cnc(N2CCc3cc(S(=O)(=O)Nc4c(F)cc(Cl)cc4F)cc(N4CCCC4=O)c32)nc1 [TP-020]
active: inhibition [40] 55.3%
inactive: residual activity [1] 72% | residual activity [2] 100% | residual activity [3] 88% | residual activity [4] 77% | residual activity [5] 87% | residual activity [6] 100% | residual activity [7] 78% | residual activity [8] 80% | residual activity [9] 100% | residual activity [10] 94% | residual activity [11] 99% | residual activity [12] 79% | residual activity [13] 94% | residual activity [14] 99% | residual activity [15] 92% | residual activity [16] 99% | residual activity [17] 95% | residual activity [18] 100% | residual activity [19] 100% | residual activity [20] 78% | residual activity [21] 95% | residual activity [22] 90% | residual activity [23] 100% | residual activity [24] 100% | residual activity [25] 95% | residual activity [26] 81% | residual activity [27] 83% | residual activity [28] 88% | residual activity [29] 98% | residual activity [30] 77% | residual activity [31] 94% | residual activity [32] 100% | residual activity [33] 100% | residual activity [34] 99% | residual activity [35] 100% | residual activity [36] 92% | residual activity [37] 82% | residual activity [38] 100% | residual activity [39] 85% | residual activity [41] 72% | inhibition [42] -0.24% | residual activity [43] 99% | inhibition [44] -4.04% | residual activity [45] 89%
